Our source for the Ki and IC50 values is patent publication US12247032B2, “Substituted pyrazolo[1,5-a]pyrimidines as inhibitors of JAK kinases” (Genentech, Inc., priority 2019, dated 2025).

Assay [1] addresses T1, recombinant human JAK1 kinase domain protein (Residues 854-1154) (Homo sapiens, UniProt P23458).
T1 construct: human JAK1 kinase domain protein (Residues 854-1154); purchased Proteros Biostructures GmbH (Martinsried, Germany); host or cells: insect cells
Kind of assay: JAK1 biochemical assay (microfluidic mobility shift, peptide phosphorylation). The note with it: 25 μM ATP, 1 nM total JAK1; Ki calculated from Ki app (tight-binding, competitive); read-out: Biochem JAK1 Ki. The method, boiled down: (§1)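 Insect-cell-expressed human JAK1 (1 nM, residues 854-1154) or JAK2 (0.2 nM, residues 812-1132) phosphorylating 1.5 μM 5-FAM peptide Y-1B with 25 μM ATP, pH 7.2 HEPES, 30 min at 22-23 °C; twelve concentrations up to 1000 nM in duplicate. Mobility-shift % conversion fitted to tight-binding quadratic for Ki^app.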

The target in assay [2] is T2, Recombinant human JAK2 kinase domain protein (Residues 812-1132) (Homo sapiens, UniProt O60674).
T2 construct: human JAK2 kinase domain protein (Residues 812-1132); made in house; host or cells: insect cells
Put plainly: JAK2 biochemical assay (microfluidic mobility shift, peptide phosphorylation). The note with it: 25 μM ATP, 0.2 nM total JAK2; Ki calculated from Ki app (tight-binding, competitive); read-out: Biochem JAK2 Ki. The method, boiled down:
as §1

Assay [3] has as its system JAK1 (IL-13-stimulated STAT6 phosphorylation in BEAS-2B cells). Put plainly: P-STAT6 BEAS-2B+IL-13 cell assay. Type of assay: cell-based, human. The note with it: Homo sapiens, BEAS-2B, 1 h, 1 hour compound, IL-13 15 minutes, IC50 by four-parameter fit, read-out: Cellular JAK1 PSTAT6 BEAS2B + IL13. The method, boiled down:
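BEAS-2B human bronchial epithelial cells preincubated 1 h at 37 °C with compound, then stimulated with human recombinant IL-13 for 15 min. Phospho-STAT6 (Tyr641) in lysates measured by MSD electrochemiluminescence immunoassay; IC50 from a four-parameter logistic fit of percent of control.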

T2 sequence (O60674 812-1132): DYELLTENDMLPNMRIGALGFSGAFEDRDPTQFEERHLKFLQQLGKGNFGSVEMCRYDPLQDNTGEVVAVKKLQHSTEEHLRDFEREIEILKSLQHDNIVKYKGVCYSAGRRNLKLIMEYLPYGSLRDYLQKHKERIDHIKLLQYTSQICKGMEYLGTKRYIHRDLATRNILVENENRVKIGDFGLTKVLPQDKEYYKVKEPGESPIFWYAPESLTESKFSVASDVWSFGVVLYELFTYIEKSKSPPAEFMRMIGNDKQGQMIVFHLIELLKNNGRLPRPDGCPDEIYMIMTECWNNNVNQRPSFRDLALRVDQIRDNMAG
T1 sequence (P23458 854-1154): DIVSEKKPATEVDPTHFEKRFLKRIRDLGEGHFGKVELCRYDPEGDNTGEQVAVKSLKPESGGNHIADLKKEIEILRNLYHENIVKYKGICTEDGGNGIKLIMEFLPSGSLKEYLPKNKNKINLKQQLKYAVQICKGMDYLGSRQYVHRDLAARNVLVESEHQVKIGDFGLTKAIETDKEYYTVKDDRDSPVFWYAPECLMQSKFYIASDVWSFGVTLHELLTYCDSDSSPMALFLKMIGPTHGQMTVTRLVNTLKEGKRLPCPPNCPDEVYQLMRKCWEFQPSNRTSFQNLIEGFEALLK

For the compound `O=C(Nc1cn(Cc2nnn(CCN3CCNCC3)n2)nc1-c1cc(Cl)ccc1OC(F)F)c1cnn2cccnc12` [Example 40, N-[3-[5-chloro-2-(difluoromethoxy)phenyl]-1-[[2-(2-piperazin-1-ylethyl)tetrazol-5-yl]methyl]pyrazol-4-yl]pyrazolo[1,5-a]pyrimidine-3-carboxamide], the Ki is 0.78 nM in assay [1] and 0.68 nM in assay [2]. Also, in assay [3], the IC50 came to 86 nM.

With `CSc1ccc(OC(F)F)c(-c2nn(Cc3nnnn3CCN(C)C)cc2NC(=O)c2cnn3cccnc23)c1` [Example 41, N-[3-[2-(difluoromethoxy)-5-methylsulfanyl-phenyl]-1-[[1-[2-(dimethylamino)ethyl]tetrazol-5-yl]methyl]pyrazol-4-yl]pyrazolo[1,5-a]pyrimidine-3-carboxamide], the Ki was 0.32 nM in assay [1] and 0.2 nM in assay [2]. In addition, the IC50 in assay [3] is 14 nM.

With `CN1CCN(CCn2nnnc2Cn2cc(NC(=O)c3cnn4cccnc34)c(-c3cc(Cl)ccc3OC(F)F)n2)CC1` [Example 42, N-[3-[5-chloro-2-(difluoromethoxy)phenyl]-1-[[1-[2-(4-methylpiperazin-1-yl)ethyl]tetrazol-5-yl]methyl]pyrazol-4-yl]pyrazolo[1,5-a]pyrimidine-3-carboxamide], the values for the Ki in assay [1] and in assay [2] were 0.33 nM and 0.22 nM, respectively. Moreover, in assay [3], the IC50 came to 16 nM.

As for `CN(C)CCn1nnc(Cn2cc(NC(=O)c3cnn4cccnc34)c(-c3cc4c(cc3OC(F)F)NCCO4)n2)n1` [Example 43, N-[3-[6-(difluoromethoxy)-3,4-dihydro-2H-1,4-benzoxazin-7-yl]-1[[2-[2-(dimethylamino)ethyl]tetrazol-5-yl]methyl]pyrazol-4-yl]pyrazolo[1,5-a]pyrimidine-3-carboxamide], the Ki in assay [1] is 0.86 nM; in assay [2], 0.34 nM. In addition, the IC50 in assay [3] came to 36 nM.

As for `CN(C)CCn1nnnc1Cn1cc(NC(=O)c2cnn3cccnc23)c(-c2cc3c(cc2OC(F)F)NCCO3)n1` [Example 44, N-[3-[6-(difluoromethoxy)-3,4-dihydro-2H-1,4-benzoxazin-7-yl]-1-[[1-[2-(dimethylamino)ethyl]tetrazol-5-yl]methyl]pyrazol-4-yl]pyrazolo[1,5-a]pyrimidine-3-carboxamide], the Ki in assay [1] was 0.71 nM; in assay [2], 0.47 nM. Besides, the IC50 in assay [3] was found to be 25 nM.

Regarding `CN1CC(N(C)CCn2nnnc2Cn2cc(NC(=O)c3cnn4cccnc34)c(-c3cc(OC(F)F)ccc3OC(F)F)n2)C1` [Example 45, N-[3-[2,5-bis(difluoromethoxy)phenyl]-1-[[1-[2-[methyl-(1-methylazetidin-3-yl)amino]ethyl]tetrazol-5-yl]methyl]pyrazol-4-yl]pyrazolo[1,5-a]pyrimidine-3-carboxamide], the figures for the Ki in assay [1] and in assay [2] were 0.81 nM and 0.65 nM, respectively. Besides, in assay [3], the IC50 was determined as 81 nM.

Regarding `CSc1ccc(OC(F)F)c(-c2nn(Cc3nnn(C4CN(CCN(C)C)C4)n3)cc2NC(=O)c2cnn3cccnc23)c1` [Example 47, N-[3-[2-(difluoromethoxy)-5-methylsulfanyl-phenyl]-1-[[2-[1-[2-(dimethylamino)ethyl]azetidin-3-yl]tetrazol-5-yl]methyl]pyrazol-4-yl]pyrazolo[1,5-a]pyrimidine-3-carboxamide], the values for the Ki in assay [1] and in assay [2] were 0.46 nM and 0.32 nM, respectively. In addition, in assay [3], the IC50 is 16 nM.

For `CN1CC(N(C)CCn2nnc(Cn3cc(NC(=O)c4cnn5cccnc45)c(-c4cc(OC(F)F)ccc4OC(F)F)n3)n2)C1` [Example 48, N-[3-[2,5-bis(difluoromethoxy)phenyl]-1-[[2-[2-[methyl-(1-methylazetidin-3-yl)amino]ethyl]tetrazol-5-yl]methyl]pyrazol-4-yl]pyrazolo[1,5-a]pyrimidine-3-carboxamide], the Ki in assay [1] was 0.63 nM; in assay [2], 0.54 nM. Also, the IC50 in assay [3] was 15 nM.

For the compound `CN(C)CCN1CC(n2nnc(Cn3cc(NC(=O)c4cnn5cccnc45)c(-c4cc(C5CC5)ccc4OC(F)F)n3)n2)C1` [Example 50, N-[3-[5-cyclopropyl-2-(difluoromethoxy)phenyl]-1-[[2-[1-[2-(dimethylamino)ethyl]azetidin-3-yl]tetrazol-5-yl]methyl]pyrazol-4-yl]pyrazolo[1,5-a]pyrimidine-3-carboxamide], the Ki was 0.5 nM in assay [1] and 0.44 nM in assay [2]. Moreover, in assay [3], the IC50 came out at 16 nM.

As to `CN(C)CCCN1CC(n2nnc(Cn3cc(NC(=O)c4cnn5cccnc45)c(-c4cc(OC(F)F)ccc4OC(F)F)n3)n2)C1` [Example 51, N-[3-[2,5-bis(difluoromethoxy)phenyl]-1-[[2-[1-[3-(dimethylamino)propyl]azetidin-3-yl]tetrazol-5-yl]methyl]pyrazol-4-yl]pyrazolo[1,5-a]pyrimidine-3-carboxamide], the Ki in assay [1] and in assay [2] was 0.37 nM throughout. Besides, the IC50 in assay [3] came to 12 nM.

Take `CN(C)CCCCN1CC(n2nnc(Cn3cc(NC(=O)c4cnn5cccnc45)c(-c4cc(OC(F)F)ccc4OC(F)F)n3)n2)C1` [Example 55, N-[3-[2,5-bis(difluoromethoxy)phenyl]-1-[[2-[1-[4-(dimethylamino)butyl]azetidin-3-yl]tetrazol-5-yl]methyl]pyrazol-4-yl]pyrazolo[1,5-a]pyrimidine-3-carboxamide]: the figures for the Ki in assay [1] and in assay [2] were 0.6 nM and 0.58 nM, respectively. Moreover, in assay [3], the IC50 was determined as 44 nM.

As to `CN1CC(CN2CC(n3nnc(Cn4cc(NC(=O)c5cnn6cccnc56)c(-c5cc(OC(F)F)ccc5OC(F)F)n4)n3)C2)C1` [Example 56, N-[3-[2,5-bis(difluoromethoxy)phenyl]-1-[[2-[1-[(1-methylazetidin-3-yl)methyl]azetidin-3-yl]tetrazol-5-yl]methyl]pyrazol-4-yl]pyrazolo[1,5-a]pyrimidine-3-carboxamide], the figures for the Ki in assay [1] and in assay [2] were 0.84 nM and 0.73 nM, respectively. Besides, in assay [3], the IC50 is 80 nM.

In the case of `CN(C)CCCN1CC(n2nnc(Cn3cc(NC(=O)c4cnn5cccnc45)c(-c4cc(C5CC5)ccc4OC(F)F)n3)n2)C1` [Example 57, N-[3-[5-cyclopropyl-2-(difluoromethoxy)phenyl]-1-[[2-[1-[3-(dimethylamino)propyl]azetidin-3-yl]tetrazol-5-yl]methyl]pyrazol-4-yl]pyrazolo[1,5-a]pyrimidine-3-carboxamide], the Ki was 0.71 nM in assay [1] and 0.55 nM in assay [2]. For the same compound, the IC50 in assay [3] worked out at 73 nM.

As to `CN(C)C1CCN(CCn2nnc(Cn3cc(NC(=O)c4cnn5cccnc45)c(-c4cc(OC(F)F)ccc4OC(F)F)n3)n2)CC1` [Example 59, N-[3-[2,5-bis(difluoromethoxy)phenyl]-1-[[2-[2-[4-(dimethylamino)-1-piperidyl]ethyl]tetrazol-5-yl]methyl]pyrazol-4-yl]pyrazolo[1,5-a]pyrimidine-3-carboxamide], the Ki in assay [1] was 1 nM; in assay [2] it was 0.71 nM. Also, the IC50 in assay [3] stood at 62 nM.

For the compound `CN(C)C1CCN(CCn2nnnc2Cn2cc(NC(=O)c3cnn4cccnc34)c(-c3cc(OC(F)F)ccc3OC(F)F)n2)CC1` [Example 60, N-[3-[2,5-bis(difluoromethoxy)phenyl]-1-[[1-[2-[4-(dimethylamino)-1-piperidyl]ethyl]tetrazol-5-yl]methyl]pyrazol-4-yl]pyrazolo[1,5-a]pyrimidine-3-carboxamide], the Ki in assay [1] is 0.81 nM; in assay [2], 0.97 nM. Besides, the IC50 in assay [3] is 70 nM.

For `CN(C)CCCN1CC(n2nnc(Cn3cc(NC(=O)c4cnn5cccnc45)c(-c4cc(Cl)ccc4OC(F)F)n3)n2)C1` [Example 62, N-[3-[5-chloro-2-(difluoromethoxy)phenyl]1-[[2-[1-[3-(dimethylamino)propyl]azetidin-3-yl]tetrazol-5-yl]methyl]pyrazol-4-yl]pyrazolo[1,5-a]pyrimidine-3-carboxamide], the Ki was 0.66 nM in assay [1] and 0.38 nM in assay [2]. Besides, the IC50 in assay [3] came to 38 nM.

With `CN(C)[C@H]1C[C@@H](n2nnc(Cn3cc(NC(=O)c4cnn5cccnc45)c(-c4cc(OC(F)F)ccc4OC(F)F)n3)n2)C1` [Example 63, N-[3-[2,5-bis(difluoromethoxy)phenyl]-1-[[2-[3-(dimethylamino)cyclobutyl]tetrazol-5-yl]methyl]pyrazol-4-yl]pyrazolo[1,5-a]pyrimidine-3-carboxamide], the Ki in assay [1] is 0.64 nM; in assay [2], 0.46 nM. For the same compound, the IC50 in assay [3] is 22 nM.

Consider `CN(C)[C@H]1C[C@H](n2nnc(Cn3cc(NC(=O)c4cnn5cccnc45)c(-c4cc(OC(F)F)ccc4OC(F)F)n3)n2)C1` [Example 64, N-[3-[2,5-bis(difluoromethoxy)phenyl]-1-[[2-[3-(dimethylamino)cyclobutyl]tetrazol-5-yl]methyl]pyrazol-4-yl]pyrazolo[1,5-a]pyrimidine-3-carboxamide; formic acid], for which the figures for the Ki in assay [1] and in assay [2] were 0.87 nM and 0.55 nM, respectively. The IC50 in assay [3] turned out to be 17 nM.
